# Tested on: K562 cells
# Test: Apoptosis assay (Annexin V/PI flow cytometry)
# Assay type: cell-based, human
# Conditions: 24 h
# Protocol: K562 cells were seeded in six-well plates (1.0 × 10^6 cells/well) and incubated overnight. Compounds of different concentrations were added to the 6-well plates. After incubation for 24 h, the cells were detached with trypsin, washed twice with PBS and cold BioLegend’s cell staining buffer, and then, 5 μL of FITC Annexin V and 10 μL of propidium iodide solution were added. The cells were gently vortexed and incubated in a dark environment for 15 min at room temperature (25 °C). After adding 400 μL of Annexin V binding buffer to each tube, each sample was analyzed by flow cytometry (Sony Biotechnology Cell Sorter SH800S) with proper machine settings, and the data were analyzed by cell sorter software (Sony Biotechnology).
compound,measurement,setting,value
O=C(O)c1ccc(-n2cc(C(=O)c3c(O)ccc4ccccc34)cn2)cc1 [CK-75],total apoptosis (Q2 + Q4),25 μM,28.3%
same,total apoptosis (Q2 + Q4),50 μM,34.9%
same,total apoptosis (Q2 + Q4),100 μM,45.4%

# — paper PMC11862924, “Phenylpyrazoles as Inhibitors of the m^6A RNA-Binding Protein YTHDF2” (JACS Au, 2025)
